The assay has as its target T1, GABAB receptor (Rattus norvegicus, UniProt O88871+Q9Z0U4).
T1 construct: from tissue; host or cells: rat brain cortex membranes
The assay can be described thus: In vitro [35S]GTPγS binding assay in rat cortical membranes. The following applies: PAM EC50, [35S]GTPγS binding, read-out: In vitro PAM potency. Format: biochemical. The method, then: In Vitro [^35S]GTPγS Binding Assay in Rat Cortical Membranes
Cortices of freshly harvested rat brains were dissected on an ice-cold surface and homogenized by a glass Dounce homogeniser immediately in ice-cold buffer containing 50 mM Tris, 5 mM MgCl2 and 1 mM EDTA (pH=7.6). Tissue homogenates were centrifuged at 40000 g for 15 min at 4° C. Membrane pellets were resuspended in the same buffer and membranes were incubated for 10 min at 30° C. in a shaking water bath to eliminate endogenous GABA. Homogenates were centrifuged again under the same conditions. The final pellets were resuspended in ice-cold buffer (pH=7.6) containing 50 mM Tris, 100 mM NaCl, 7 mM MgCl2, 1 mM EDTA and 1 mM dithiotreithol (DTT) to yield a concentration of 20 mg tissue weight/ml and frozen at −70° C. until use. The assay was done in a buffer containing 50 mM Tris (pH=7.4), 100 mM NaCl, 7 mM MgCl2, 1 mM EDTA and 1 mM DTT. Each assay tube contained 150 μL GDP (in a final concentration of 50 μM), 100 μL ligand and 125 μL of the membrane suspension ([…]). The assay tubes were preincubated for 10 min at 30° C. to assure equilibrium. Nonspecific binding was determined in the presence of 10 μM GTPγS; basal binding was determined in the presence of buffer only. After addition of […] [^35S]GTPγS in a volume of 25 μL to the tubes, membranes were incubated for an additional 60 min at 30° C. The assay was terminated by rapid filtration through Packard UniFilter GF/B using a Packard harvester and washed four times with 1 ml ice-cold buffer. After drying the filters at 40° C. for 1 h, 40 μL Microscint (Packard) was added to the filters and radioactivity of the filters was determined by a TopCount NXT (PerkinElmer, Waltham, MA; Alper and Nelson, Eur. J. Pharmacol. 1998, 343, 303-312; Rinken et al, Biochem. Pharmacol. 1999, 57, 155-162). Data thus gathered were used to determine PAM EC50 values for each compound as primary in vitro activity end point.
In Table 1 compounds of this invention measured in the [^35S]GTPγS binding assay are listed.
(In general: Binding of GTPγS marks nucleotide exchange on a G protein.)

T1 sequence (O88871 41-940): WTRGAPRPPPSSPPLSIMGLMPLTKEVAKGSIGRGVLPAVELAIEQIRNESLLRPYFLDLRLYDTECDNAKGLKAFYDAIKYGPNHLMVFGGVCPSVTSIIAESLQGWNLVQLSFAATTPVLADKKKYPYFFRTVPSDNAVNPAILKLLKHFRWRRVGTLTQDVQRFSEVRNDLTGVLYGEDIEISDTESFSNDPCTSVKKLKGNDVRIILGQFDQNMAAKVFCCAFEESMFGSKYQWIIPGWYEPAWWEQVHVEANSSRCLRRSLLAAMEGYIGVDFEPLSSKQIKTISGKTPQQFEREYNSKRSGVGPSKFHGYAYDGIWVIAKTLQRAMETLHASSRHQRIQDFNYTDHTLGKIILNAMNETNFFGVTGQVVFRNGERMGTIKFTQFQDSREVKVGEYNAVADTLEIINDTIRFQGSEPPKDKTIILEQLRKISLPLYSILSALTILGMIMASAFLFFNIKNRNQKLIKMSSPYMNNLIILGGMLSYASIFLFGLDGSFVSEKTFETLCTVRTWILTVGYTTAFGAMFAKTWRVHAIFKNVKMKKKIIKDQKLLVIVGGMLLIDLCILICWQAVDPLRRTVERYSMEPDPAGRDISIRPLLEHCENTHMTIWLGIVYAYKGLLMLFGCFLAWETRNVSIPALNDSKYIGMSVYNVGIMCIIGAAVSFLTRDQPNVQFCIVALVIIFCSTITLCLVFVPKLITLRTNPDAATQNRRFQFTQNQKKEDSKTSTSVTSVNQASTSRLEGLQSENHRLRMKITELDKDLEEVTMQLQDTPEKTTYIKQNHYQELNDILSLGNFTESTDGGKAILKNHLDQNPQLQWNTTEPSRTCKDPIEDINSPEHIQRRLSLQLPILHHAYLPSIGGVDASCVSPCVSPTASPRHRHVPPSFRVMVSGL
T1 sequence (Q9Z0U4 17-960 limits assumed): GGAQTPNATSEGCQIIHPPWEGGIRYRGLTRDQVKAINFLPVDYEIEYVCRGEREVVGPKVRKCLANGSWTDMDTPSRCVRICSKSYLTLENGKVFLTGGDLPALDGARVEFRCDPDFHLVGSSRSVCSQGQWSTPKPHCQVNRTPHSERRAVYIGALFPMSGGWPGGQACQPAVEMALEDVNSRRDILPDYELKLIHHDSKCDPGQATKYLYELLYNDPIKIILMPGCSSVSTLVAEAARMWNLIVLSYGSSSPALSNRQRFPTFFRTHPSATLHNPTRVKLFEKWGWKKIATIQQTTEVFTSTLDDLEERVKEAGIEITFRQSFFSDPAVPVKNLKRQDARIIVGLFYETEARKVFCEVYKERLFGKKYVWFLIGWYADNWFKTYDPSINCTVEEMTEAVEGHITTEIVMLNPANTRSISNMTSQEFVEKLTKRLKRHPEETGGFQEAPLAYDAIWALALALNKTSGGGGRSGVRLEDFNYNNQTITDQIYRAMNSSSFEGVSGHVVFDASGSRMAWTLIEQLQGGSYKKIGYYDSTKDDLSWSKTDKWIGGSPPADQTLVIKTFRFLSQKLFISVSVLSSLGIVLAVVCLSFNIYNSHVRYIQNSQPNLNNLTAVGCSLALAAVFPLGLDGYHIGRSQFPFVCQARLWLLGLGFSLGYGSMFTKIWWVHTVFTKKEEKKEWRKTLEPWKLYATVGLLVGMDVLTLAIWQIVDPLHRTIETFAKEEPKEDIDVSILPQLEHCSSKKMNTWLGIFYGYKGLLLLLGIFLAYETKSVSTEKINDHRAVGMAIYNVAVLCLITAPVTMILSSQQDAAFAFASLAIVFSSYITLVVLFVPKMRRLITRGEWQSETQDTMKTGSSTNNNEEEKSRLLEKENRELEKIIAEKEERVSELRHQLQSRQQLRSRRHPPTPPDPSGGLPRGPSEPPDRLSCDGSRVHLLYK

Consider `CC(=O)N1CCC[C@@](C)(c2cc(C)nc3cc([C@H]4CC[C@H](C(F)(F)F)CC4)nn23)C1` [Example 41], for which the EC50 was less than 0.1 µM.
As for `CCc1c(C)nc2cc([C@H]3CC[C@H](C(F)(F)F)CC3)nn2c1[C@]1(C)CCCN(S(C)(=O)=O)C1` [Example 44], the EC50 is less than 0.1 µM.
Turning to `CC(=O)N1CCC[C@@](C)(c2c(C)c(C)nc3cc([C@H]4CC[C@H](C(F)(F)F)CC4)nn23)C1` [Example 45], the EC50 was in the range of 0.1 to 1 µM.
As to `Cc1nc2cc([C@H]3CC[C@H](C(F)(F)F)CC3)nn2c([C@]2(C)CCCN(CC(F)(F)F)C2)c1C` [Example 48], the EC50 fell in the range of 0.1 to 1 µM.
Consider `Cc1nc2cc([C@H]3CC[C@H](C(F)(F)F)CC3)nn2c([C@]2(C)CCCN(CC(N)=O)C2)c1C` [Example 49], for which the EC50 is 1 to 10 µM.
Next, `Cc1cc([C@]2(C)CCCN(CC#N)C2)n2nc([C@H]3CC[C@H](C(F)(F)F)CC3)cc2n1` [Example 50]: 0.1 to 1 µM.
Regarding `CCc1c(C)nc2cc([C@H]3CC[C@H](C(F)(F)F)CC3)nn2c1[C@@H]1CCCN(C(=O)OC)C1` [Example 51], the EC50 is 0.1 to 1 µM.
With `Cc1nc2cc([C@H]3CC[C@H](C(F)(F)F)CC3)nn2c([C@@H]2CCCN(C(=O)CN)C2)c1C` [Example 52] the figure was 1 to 10 µM; with `Cc1cc([C@@H]2CN(C(=O)CN)CC[C@H]2C)n2nc([C@H]3CC[C@H](C(F)(F)F)CC3)cc2n1` [Example 53], 1 to 10 µM.
With `Cc1cc([C@@H]2CCCN(C(=O)C3CC3)C2)n2nc([C@H]3CC[C@H](C(F)(F)F)CC3)cc2n1` [Example 54] the figure was 0.1 to 1 µM.
For the compound `Cc1cc(C2CN(C=O)CCC2(C)C)n2nc([C@H]3CC[C@H](C(F)(F)F)CC3)cc2n1` (stereo partly drawn) [Example 59], the EC50 was in the range of 0.1 to 1 µM.
With `Cc1cc(C2CN(C3COC3)CCC2(C)C)n2nc([C@H]3CC[C@H](C(F)(F)F)CC3)cc2n1` (stereo partly drawn) [Example 60] the figure was 0.1 to 1 µM; with `Cc1cc(C2CN(C)CCC2(C)C)n2nc([C@H]3CC[C@H](C(F)(F)F)CC3)cc2n1` (stereo partly drawn) [Example 61], 0.1 to 1 µM.
On to `CC(=O)N1CCCC(CF)(c2cc(C)nc3cc([C@H]4CC[C@H](C(F)(F)F)CC4)nn23)C1` (stereo partly drawn) [Example 62], for which the EC50 is 0.1 to 1 µM.
With `Cc1cc([C@@H]2CCCN(C3CCOC3)C2)n2nc([C@H]3CC[C@H](C(F)(F)F)CC3)cc2n1` (stereo partly drawn) [Example 63], the EC50 lay in the range of 0.1 to 1 µM.
With `Cc1cc([C@]2(C)CCCN(C(=N)N)C2)n2nc([C@H]3CC[C@H](C(F)(F)F)CC3)cc2n1` [Example 64] the figure was 1 to 10 µM; with `Cc1cc([C@@H]2CCCN(C(=O)N3CCOCC3)C2)n2nc([C@H]3CC[C@H](C(F)(F)F)CC3)cc2n1` [Example 65], 1 to 10 µM; with `CCC1CCN(C(=O)OC)CC1c1cc(C)nc2cc([C@H]3CC[C@H](C(F)(F)F)CC3)nn12` (stereo partly drawn) [Example 67], 0.1 to 1 µM.
Consider `Cc1cc([C@]2(C)CCCN(C=O)C2)n2nc([C@H]3CC[C@H](C(F)(F)F)CC3)cc2n1` [Example 69], for which the EC50 lay in the range of 0.1 to 1 µM.
Next, `CC(=O)N1CCOC(c2c(C)c(C)nc3cc([C@H]4CC[C@H](C(F)(F)F)CC4)nn23)C1` (stereo partly drawn) [Example 70]: 0.1 to 1 µM.
As to `Cc1cc([C@]2(C)CCCN(S(N)(=O)=O)C2)n2nc([C@H]3CC[C@H](C(F)(F)F)CC3)cc2n1` [Example 71], the EC50 is 1 to 10 µM.
For `CCC1CCN(C=O)CC1c1cc(C)nc2cc([C@H]3CC[C@H](C(F)(F)F)CC3)nn12` (stereo partly drawn) [Example 72], the EC50 fell in the range of 0.1 to 1 µM.
In the case of `COC(=O)N1CCOC(C)(c2cc(C)nc3cc([C@H]4CC[C@H](C(F)(F)F)CC4)nn23)C1` (stereo partly drawn) [Example 73], the EC50 is 1 to 10 µM.
With `COC(=O)N1CC(c2c(C)c(C)nc3cc([C@H]4CC[C@H](C(F)(F)F)CC4)nn23)CC(F)(F)C1` (stereo partly drawn) [Example 74] the figure was 0.1 to 1 µM; with `COC(=O)N1CC[C@H](C)[C@H](c2c(C)c(C)nc3cc([C@H]4CC[C@H](C(F)(F)F)CC4)nn23)C1` [Example 77], less than 0.1 µM; with `Cc1cc(C2(C)CN(C=O)CC(F)(F)C2)n2nc([C@H]3CC[C@H](C(F)(F)F)CC3)cc2n1` (stereo partly drawn) [Example 78], 0.1 to 1 µM.
As for `Cc1nc2cc([C@H]3CC[C@H](C(F)(F)F)CC3)nn2c(C2CN(C(=O)C3(C)COC3)CC(F)(F)C2)c1C` (stereo partly drawn) [Example 79], the EC50 was 0.1 to 1 µM.
For `Cc1nc2cc([C@H]3CC[C@H](C(F)(F)F)CC3)nn2c(C2CN(C=O)CCO2)c1C` (stereo partly drawn) [Example 80], the EC50 lay within 0.1 to 1 µM.
Consider `Cc1cc(C2CN(C=O)CCO2)n2nc([C@H]3CC[C@H](C(F)(F)F)CC3)cc2n1` (stereo partly drawn) [Example 83], for which the EC50 was in the range of 0.1 to 1 µM.
Next, `COC(=O)N1CCOC(c2cc(C)nc3cc([C@H]4CC[C@H](C(F)(F)F)CC4)nn23)C1` (stereo partly drawn) [Example 84]: 0.1 to 1 µM.
Consider `Cc1cc([C@H]2CN(C=O)CCO2)n2nc([C@H]3CC[C@H](C(F)(F)F)CC3)cc2n1` [Example 86], for which the EC50 was 0.1 to 1 µM.
As for `Cc1cc(C2CN(C=O)CCS2(=O)=O)n2nc([C@H]3CC[C@H](C(F)(F)F)CC3)cc2n1` (stereo partly drawn) [Example 87], the EC50 was not below 10 µM.
As for `CC(=O)N1CCO[C@@H](c2c(C)c(C)nc3cc([C@H]4CC[C@H](C(F)(F)F)CC4)nn23)C1` [Example 88], the EC50 was 0.1 to 1 µM.
With `Cc1cc([C@H]2CCCN(C=O)[C@@H]2C)n2nc([C@H]3CC[C@H](C(F)(F)F)CC3)cc2n1` [Example 89] the figure was 0.1 to 1 µM; with `COC(=O)N1CCS(=O)(=O)[C@@H](c2cc(C)nc3cc([C@H]4CC[C@H](C(F)(F)F)CC4)nn23)C1` [Example 90], not below 10 µM; with `COC(=O)N1CCO[C@H](c2cc(C)nc3cc([C@H]4CC[C@H](C(F)(F)F)CC4)nn23)C1` [Example 93], 1 to 10 µM.
For the compound `Cc1cc([C@@H]2CN(C=O)CCO2)n2nc([C@H]3CC[C@H](C(F)(F)F)CC3)cc2n1` [Example 94], the EC50 was in the range of 1 to 10 µM.
Next, `CCOC(=O)N1CCO[C@H](c2cc(C)nc3cc([C@H]4CC[C@H](C(F)(F)F)CC4)nn23)C1` [Example 95]: 1 to 10 µM.
With `COC(=O)N1C[C@@H](c2cc(C)nc3cc([C@H]4CC[C@H](C(F)(F)F)CC4)nn23)OC[C@@H]1C` [Example 96], the EC50 lay in the range of 1 to 10 µM.
With `COC(=O)N1CCC[C@H](c2cc(C)nc3cc([C@H]4CC[C@H](C(F)(F)F)CC4)nn23)[C@@H]1C` [Example 97] the figure was 0.1 to 1 µM; with `Cc1cc([C@@H]2CN(C=O)[C@@H](C)CO2)n2nc([C@H]3CC[C@H](C(F)(F)F)CC3)cc2n1` [Example 98], 1 to 10 µM; with `Cc1cc([C@H]2CN(C(=O)OC(C)C)CCO2)n2nc([C@H]3CC[C@H](C(F)(F)F)CC3)cc2n1` [Example 99], 0.1 to 1 µM.
As for `COCCOC(=O)N1CCO[C@@H](c2cc(C)nc3cc([C@H]4CC[C@H](C(F)(F)F)CC4)nn23)C1` [Example 100], the EC50 was in the range of 0.1 to 1 µM.
On to `COC(=O)N1C[C@H](c2cc(C)nc3cc([C@H]4CC[C@H](C(F)(F)F)CC4)nn23)OC[C@@H]1C` [Example 102], for which the EC50 was less than 0.1 µM.
Turning to `Cc1cc([C@H]2CN(C=O)[C@@H](C)CO2)n2nc([C@H]3CC[C@H](C(F)(F)F)CC3)cc2n1` [Example 103], the EC50 was 0.1 to 1 µM.
As for `Cc1cc(C2CCCN(C)C2=O)n2nc([C@H]3CC[C@H](C(F)(F)F)CC3)cc2n1` (stereo partly drawn) [Example 105], the EC50 fell in the range of 1 to 10 µM.
For the compound `COC(=O)N1C[C@H](c2cc(C)nc3cc([C@H]4CC[C@H](C(F)(F)F)CC4)nn23)OC[C@H]1C` [Example 106], the EC50 lay in the range of 0.1 to 1 µM.
With `CCOC(=O)N1CCC[C@H](c2cc(C)nc3cc([C@H]4CC[C@H](C(F)(F)F)CC4)nn23)[C@@H]1C` [Example 107] the figure was 1 to 10 µM; with `Cc1cc([C@H]2CN(C=O)[C@H](C)CO2)n2nc([C@H]3CC[C@H](C(F)(F)F)CC3)cc2n1` [Example 108], 0.1 to 1 µM; with `CC(=O)N1CCO[C@@H](c2cc(C)nc3cc([C@H]4CC[C@H](C(F)(F)F)CC4)nn23)C1` [Example 109], 0.1 to 1 µM.
As for `COC(=O)N1C[C@@H](c2cc(C)nc3cc([C@H]4CC[C@H](C(F)(F)F)CC4)nn23)OC[C@H]1C` [Example 110], the EC50 fell in the range of 1 to 10 µM.
With `Cc1cc([C@H]2CN(C(=O)c3cnco3)CCO2)n2nc([C@H]3CC[C@H](C(F)(F)F)CC3)cc2n1` [Example 114] the figure was 0.1 to 1 µM.
`Cc1cc([C@H]2CN(C(=O)c3cncs3)CCO2)n2nc([C@H]3CC[C@H](C(F)(F)F)CC3)cc2n1` [Example 118]: the EC50 was in the range of 0.1 to 1 µM.
Next, `Cc1cc([C@H]2CN(S(C)(=O)=O)CCO2)n2nc([C@H]3CC[C@H](C(F)(F)F)CC3)cc2n1` [Example 119]: 0.1 to 1 µM.
